# Source: patent EP1724268A1, “COMPOUND HAVING TGF-BETA INHIBITORY ACTIVITY AND PHARMACEUTICAL COMPOSITION CONTAINING SAME” (KIRIN BEER KABUSHIKI KAISHA, priority 2004, dated 2005)
# Where two headings read alike, the source gives them in different places.
# Tested on: TGFβ signal
# Assay: TGFβ signal inhibitory activity, (SBE)4-Luc reporter in A549 cells (Test Examples 1A and 1B)
# Type: cell-based, human
# Conditions: Homo sapiens, A549, read-out: TGFβ inhibition rate, %
# Summary of the method: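 Compounds at 3 µM and 10 µM (some 1 µM) were added with 2 ng/ml TGFβ-1 to A549 cells stably expressing an SBE-driven luciferase, then cultured 4 hr. Chemiluminescent luciferase signal gave % inhibition versus TGFβ-alone and no-TGFβ controls.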
# [1] = test compound 3 µM, TGFβ-1 2 ng/ml, 4 hr, Table 1A
# [2] = test compound 10 µM, TGFβ-1 2 ng/ml, 4 hr, Table 1A
# [3] = 3 µM, compounds of Reference Examples (Test Example 1B)
# [4] = 10 µM, compounds of Reference Examples (Test Example 1B)
# [5] = test compound 3 µM, Reference Examples, Table 1B
# [6] = test compound 10 µM, Reference Examples, Table 1B
Structure (SMILES),inhibition at 3 µM [3],inhibition at 10 µM [4],other results
"COc1cc2nccc(Oc3cc4cnccc4nc3-c3cccnc3)c2cc1OC [Compound 95, 3-(6,7-Dimethoxy-quinolin-4-yloxy)-2-pyridin-3-yl-[1,6]naphthyridine]",,,inhibition at 3 µM [1]: 40%; inhibition at 10 µM [2]: 85%
COc1cc2nccc(Oc3cc4ccccc4nc3-c3ccc(F)cc3)c2cc1OC [r285],65%,100%,
COc1cc2c(Oc3cc4cccnc4nc3C)ccnc2cc1OCCCO [Compound r402],90%,100%,
COc1cc2c(Oc3cc(C)c(C)nc3-c3nc(C)c(C)s3)ccnc2cc1OCCO [Compound r461],82%,,
COc1cc2c(Oc3ccc(C)nc3-c3nccs3)ccnc2cc1O [Compound r329],100%,100%,
COc1cc2nccc(Oc3cc(C)c(Cl)cc3C(C)=O)c2cc1OC [Compound r37],,,inhibition at 3 µM [5]: 94%; inhibition at 10 µM [6]: 100%
COc1cc2c(Oc3cc4ccccc4nc3C)ccnc2cc1OC[C@@H](O)CO [Compound r385],100%,100%,
"CCCNC(=O)NCCOc1ccc2nccc(Oc3ccc(CC)nc3-c3ccccn3)c2c1 [Compound 189, 1-{2-[4-(6-Ethyl-[2,2']bipyridinyl-3-yloxy)-quinolin-6-yloxy]-ethyl}-3-propyl-urea]",,,inhibition at 3 µM [1]: 97%; inhibition at 10 µM [2]: 99%
COc1cc2nccc(Oc3ccc(C)cc3C(=O)CCC3CCCC3)c2cc1OC [Compound r56],,,inhibition at 3 µM [5]: 0%; inhibition at 10 µM [6]: 84%
COc1cc2nccc(Oc3ccc(O)cc3C(C)=O)c2cc1OC [r176],32%,67%,
"COC(=O)c1cc2nccc(Oc3cc4cccnc4nc3-c3ccccc3)c2cc1OC [Compound 116, Methyl 6-methoxy-4-(2-phenyl-[1,8]naphthyridin-3-yloxy)-quinoline-7-carboxylate]",,,inhibition at 3 µM [1]: 99%; inhibition at 10 µM [2]: 100%
COc1cc2c(Oc3cc(C)c(C)nc3-c3cccc(C)n3)ccnc2cc1OCCCl [Compound r465],98%,100%,
COc1cc2c(Oc3cc4ccccc4nc3C(C)=O)ccnc2cc1OCC(O)CO (centres unmarked) [Compound r395],96%,100%,
"Cc1ccc(Oc2ccnc3ccc(OCCCCl)cc23)c(-c2ncccn2)n1 [Compound 210, 6-(3-Chloro-propoxy)-4-(6-methyl-2-pyrimidin-2-yl-pyridin-3-yloxy)-quinoline]",,,inhibition at 3 µM [1]: 87%
COc1cc2nccc(Oc3ccc(C)nc3Cc3cccc(C)n3)c2cc1OC [r215],72%,99%,
"COc1ccc(Oc2ccnc3cc(OC)c(OC)cc23)c(/C=C/c2ccccc2)c1 [Compound r7, 6,7-Dimethoxy-4-{4-methoxy-2-[(E)-2-phenyl-1-ethenyl]phenoxy}quinoline]",,,inhibition at 3 µM [5]: 13%; inhibition at 10 µM [6]: 54%
COc1cc2c(Oc3cc(C)c(C)nc3-c3ccccn3)ccnc2cc1OCCCO [Compound r340],99%,,
"CCc1ccc(Oc2ccnc3cc(OC)c(OC)cc23)c(-c2cccnc2)n1 [Compound 46, 3-(6,7-Dimethoxy-quinolin-4-yloxy)-6-ethyl-[2,3']bipyridine]",,,inhibition at 3 µM [1]: 100%; inhibition at 10 µM [2]: 100%
"COc1ccc2nccc(Oc3cc4cccnc4nc3-c3ccccc3)c2n1 [Compound 128, 2-Methoxy-8-(2-phenyl-[1,8]naphthyridin-3-yloxy)-[1,5]naphthyridine]",,,inhibition at 3 µM [1]: 93%; inhibition at 10 µM [2]: 100%
COc1cc2nccc(Oc3ccc(C)cc3C(=O)c3ccc(O)cc3)c2cc1OC [r188],80%,100%,
"COc1cc2nccc(Oc3ccc(C)nc3C#N)c2cc1OC [Compound r213, 3-(6,7-Dimethoxy-quinolin-4-yloxy)-6-methyl-pyridin-2-carbonitrile]",28%,65%,
COc1cc2nccc(Oc3ccc(C)cc3C(C)=O)c2cc1OC [Compound r35],,,inhibition at 3 µM [5]: 49%; inhibition at 10 µM [6]: 89%
